In US20080221095A1, “Metalloprotease inhibitors containing a heterocyclic moiety” (priority 2007, published 2008):
pIC50: −log10 of the molar value.

How the values were obtained:
Type in all cases: biochemical
[1] = biological target: T1, catalytic domain of MMP-13 enzyme (Homo sapiens, UniProt P45452); experiment: Assay for determining MMP-13 inhibition (fluorescent substrate); details: read-out: MMP-13 Activity (IC50 MMP-13), Group
T1 construct: 50 nM stock solution of catalytic domain of MMP-13 enzyme; purchased Invitek (Berlin) 30100812
Method: Assay for Determining MMP-13 Inhibition
The typical assay for MMP-13 activity is carried out in assay buffer comprised of 50 mM Tris, pH 7.5, 150 mM NaCl, 5 mM CaCl2 and 0.05% Brij-35. Different concentrations of tested compounds are prepared in assay buffer in 50 μL aliquots. 10 μL of a 50 nM stock solution of catalytic domain of MMP-13 enzyme (produced by Alantos or commercially available from Invitek (Berlin), Cat.#30100812) is added to the compound solution. The mixture of enzyme and compound in assay buffer is thoroughly mixed and incubated for 10 min at room temperature. Upon the completion of incubation, the assay is started by addition of 40 μL of a 12.5 μM stock solution of MMP-13 fluorescent substrate (Calbiochem, Cat. No. 444235). The time-dependent increase in fluorescence is measured at the 320 nm excitation and 390 nm emission by automatic plate multireader. The IC50 values are calculated from the initial reaction rates.

activated MMP-8 enzyme = biological target: T2, activated MMP-8 enzyme (Homo sapiens, UniProt P22894); experiment: Assay for determining MMP-8 inhibition (fluorescent substrate); details: read-out: MMP-8 Activity (IC50 MMP-8), Group
T2 construct: purchased Calbiochem 444229
Method: Assay for Determining MMP-8 Inhibition
The typical assay for MMP-8 activity is carried out in assay buffer comprised of 50 mM Tris, pH 7.5, 150 mM NaCl, 5 mM CaCl2 and 0.05% Brij-35. Different concentrations of tested compounds are prepared in assay buffer in 50 μL aliquots. 10 μL of a 50 nM stock solution of activated MMP-8 enzyme (Calbiochem, Cat. No. 444229) is added to the compound solution. The mixture of enzyme and compound in assay buffer is thoroughly mixed and incubated for 10 min at 37° C. Upon the completion of incubation, the assay is started by addition of 40 μL of a 10 μM stock solution of OmniMMP fluorescent substrate (Biomol, Cat. No. P-126). The time-dependent increase in fluorescence is measured at the 320 nm excitation and 390 nm emission by an automatic plate multireader at 37° C. The IC50 values are calculated from the initial reaction rates.

[2] = biological target: T3, catalytic domain of MMP-3 enzyme (Homo sapiens, UniProt P08254); experiment: Assay for determining MMP-3 inhibition (fluorescent substrate); details: read-out: MMP-3 Activity (IC50 MMP-3), Group
T3 construct: 100 nM stock solution of the catalytic domain of MMP-3 enzyme (Biomol, Cat. No. SE-1 09); purchased Biomol SE-1 09
Method: Assay for Determining MMP-3 Inhibition
The typical assay for MMP-3 activity is carried out in assay buffer comprised of 50 mM MES, pH 6.0, 10 mM CaCl2 and 0.05% Brij-35. Different concentrations of tested compounds are prepared in assay buffer in 50 μL aliquots. 10 μL of a 100 nM stock solution of the catalytic domain of MMP-3 enzyme (Biomol, Cat. No. SE-1 09) is added to the compound solution. The mixture of enzyme and compound in assay buffer is thoroughly mixed and incubated for 10 min at room temperature. Upon the completion of incubation, the assay is started by addition of 40 μL of a 12.5 μM stock solution of NFF-3 fluorescent substrate (Calbiochem, Cat. No. 480455). The time-dependent increase in fluorescence is measured at the 330 nm excitation and 390 nm emission by an automatic plate multireader. The IC50 values are calculated from the initial reaction rates.

T2 sequence (P22894 101-467): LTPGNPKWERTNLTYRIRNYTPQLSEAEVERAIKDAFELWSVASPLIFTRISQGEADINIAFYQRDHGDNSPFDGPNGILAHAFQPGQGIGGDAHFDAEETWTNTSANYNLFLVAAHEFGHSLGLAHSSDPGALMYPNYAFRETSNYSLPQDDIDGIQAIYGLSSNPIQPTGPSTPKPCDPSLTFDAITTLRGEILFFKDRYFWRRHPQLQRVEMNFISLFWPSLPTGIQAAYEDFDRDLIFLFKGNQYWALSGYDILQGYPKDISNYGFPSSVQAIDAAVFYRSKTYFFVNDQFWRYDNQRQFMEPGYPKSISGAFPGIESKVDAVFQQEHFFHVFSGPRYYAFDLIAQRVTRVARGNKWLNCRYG
T3 sequence (P08254 100-272 limits assumed): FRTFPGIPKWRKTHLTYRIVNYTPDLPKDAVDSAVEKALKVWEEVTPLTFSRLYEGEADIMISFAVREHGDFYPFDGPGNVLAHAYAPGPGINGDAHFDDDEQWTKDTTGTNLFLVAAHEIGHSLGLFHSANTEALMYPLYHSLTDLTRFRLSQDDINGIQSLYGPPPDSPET

Row | Structure (SMILES) | pIC50 [1] | pIC50 (activated MMP-8 enzyme) | pIC50 [2]
1 | O=C1COc2ccc(CNC(=O)c3nc(-c4ccccc4)cc(=O)[nH]3)cc2N1 [1/1] | 4.70 to 7.00 |  | 
2 | Cc1nc(C(=O)NCc2ccc3c(c2)NC(=O)CO3)[nH]c(=O)c1C [1/2] | > 7.00 |  | 
3 | O=C1COc2ccc(CNC(=O)c3nc4ccccc4c(=O)[nH]3)cc2N1 [1/4] | > 7.00 | > 6.60 | > 6.60
4 | CC(NC(=O)c1nc2ccccc2c(=O)[nH]1)c1ccc2c(c1)NC(=O)CO2 (stereo not drawn) [1/5] | 4.70 to 7.00 |  | 
5 | CC1Oc2ccc(CNC(=O)c3nc4ccccc4c(=O)[nH]3)cc2NC1=O (stereo not drawn) [1/6] | > 7.00 | 4.70 to 6.60 | 
6 | Cn1c(=O)oc2ccc(CNC(=O)c3nc4ccccc4c(=O)[nH]3)cc21 [1/7] | > 7.00 | 4.70 to 6.60 | 
7 | CN1C(=O)COc2ccc(CNC(=O)c3nc4ccccc4c(=O)[nH]3)cc21 [1/8] | 4.70 to 7.00 | 4.70 to 6.60 | 
8 | Cc1csc2nc(C(=O)NCc3ccc4c(c3)NC(=O)CO4)[nH]c(=O)c12 [1/9] | > 7.00 | > 6.60 | > 6.60
9 | O=C1COc2c(F)cc(CNC(=O)c3nc4ccccc4c(=O)[nH]3)cc2N1 [1/10] | > 7.00 |  | 
10 | O=C1COc2c(F)cc(CNC(=O)c3nc4ccc(F)cc4c(=O)[nH]3)cc2N1 [1/11] | > 7.00 |  | 
11 | Cc1sc2nc(C(=O)NCc3cc(F)c4c(c3)NC(=O)CO4)[nH]c(=O)c2c1C [1/12] | > 7.00 | > 6.60 | 
12 | O=C1COc2ncc(CNC(=O)c3nc4ccccc4c(=O)[nH]3)cc2N1 [1/13] | 4.70 to 7.00 |  | 
13 | Cc1sc2nc(C(=O)NCc3cnc4c(c3)NC(=O)CO4)[nH]c(=O)c2c1C [1/15] | > 7.00 | 4.70 to 6.60 | 
14 | O=C(NCc1ccc2c(c1)NC(=S)CO2)c1nc2ccccc2c(=O)[nH]1 [1/16] | > 7.00 | 4.70 to 6.60 | 
15 | Cc1sc2nc(C(=O)NCc3ccc4c(c3)NC(=S)CO4)[nH]c(=O)c2c1C [1/17] | > 7.00 | > 6.60 | 
16 | O=C(NCc1ccc2c(c1)-n1cnnc1CO2)c1nc2ccccc2c(=O)[nH]1 [1/18] | > 7.00 |  | 
17 | Cc1sc2nc(C(=O)NCc3ccc4c(c3)-n3cnnc3CO4)[nH]c(=O)c2c1C [1/19] | > 7.00 |  | 
18 | O=C1COc2ccc(CNC(=O)c3nc4ccc(F)cc4c(=O)[nH]3)c(F)c2N1 [1/23] | 4.70 to 7.00 |  | 
19 | Cc1sc2nc(C(=O)NCc3ccc4c(c3F)NC(=O)CO4)[nH]c(=O)c2c1C [1/24] | 4.70 to 7.00 |  | 
20 | O=C1COc2cc(F)c(CNC(=O)c3nc4ccccc4c(=O)[nH]3)cc2N1 [1/25] | > 7.00 |  | 
21 | Cc1sc2nc(C(=O)NCc3cc4c(cc3F)OCC(=O)N4)[nH]c(=O)c2c1C [1/26] | > 7.00 | 4.70 to 6.60 | 
22 | O=C1COc2c(F)c(F)cc(CNC(=O)c3nc4ccccc4c(=O)[nH]3)c2N1 [1/27] | 4.70 to 7.00 |  | 
23 | CC1N=C(C(=O)NCc2ccc3c(c2)NC(=O)CO3)NC(=O)C1c1ccccc1 (stereo not drawn) [1/29] | > 7.00 |  | 4.70 to 6.60
24 | O=C(NCc1ccc2c(c1)-n1c(noc1=O)CO2)c1nc2ccccc2c(=O)[nH]1 [1/30] | 4.70 to 7.00 |  | 
25 | O=C1COc2ccc(CNC(=O)c3nc4sc5c(c4c(=O)[nH]3)CCC3(C5)OCCO3)cc2N1 [1/32] | > 7.00 | > 6.60 | > 6.60
26 | O=C1COc2ccc(CNC(=O)c3ncc(-c4ccc(F)cc4)c(=O)[nH]3)cc2N1 [1/33] | > 7.00 |  | 
27 | Cc1ccc2nc(NC(=O)Cc3ccc4c(c3)NC(=O)CO4)[nH]c(=O)c2c1 [1/34] | 4.70 to 7.00 |  | 
28 | O=C1COc2ccc(CNC(=O)c3nc4sc5c(c4c(=O)[nH]3)CCC3(CCN(C(=O)OCc4ccccc4)CC3)C5)cc2N1 [Example 1] | 4.70 to 7.00 |  | 
29 | O=C1COc2ccc(CNC(=O)c3nc4c(c(=O)[nH]3)C3CCC4CC3)cc2N1 [Example 3] | > 7.00 | > 6.60 | 
